Results: patent US7598028B2, “Compositions and methods for detecting and treating prostate disorders” (The Regents of the University of Michigan, priority 2006, dated 2009)
Entries after “also recorded” stand apart in the source; their conditions may differ.

Assays:
EGR1 gene transcript = experiment: Quantitative real-time PCR, EGR1 in N15C6 cells; type: cell-based, human
Protocol: Quantitative Real-Time PCR. All quantitative real-time assays were conducted with an Applied Biosystems 7900HT instrument and reagents. Cells were grown to 70% confluence in […] dishes prior to RNA purification using the Trizol reagent (Invitrogen Life Technologies). Experiments utilizing U0126 were performed as above, except that cells were treated with DMSO (vehicle) or 5 uM U0126 for 2 hours, then grown in the presence or absence of CXCL12. For all experiments, one microgram of RNA was reverse transcribed by use of Superscript III reverse transcriptase (Invitrogen, Carlsbad, Calif.). The resulting cDNA was diluted 1:100. Real-time PCR was performed by use of Assays on Demand (Applied BioSystems, Foster City, Calif.) according to the manufacturer's instructions, except that Real Time Ready with Rox passive dye (QBioGene, Carlsbad, Calif.) was used in place of TaqMan Universal PCR Master Mix. […] Cycle numbers to threshold were calculated by subtracting averaged control from averaged experimental values, and Fold Gene Expression was calculated by raising […]. […]
Quantitative Real-Time PCR. All quantitative real-time assays were conducted as previously described with an Applied Biosystems 7900HT instrument and reagents (see, e.g., Begley L A, et al., J Biol. Chem. 2007 Sep. 14; 282(37):26767-74; herein incorporated by reference in its entirety). […]

[1] = tested on: LNCaP prostate epithelial cells; experiment: Proliferation assay (cell counts), LNCaP; type: cell-based, human
Protocol: Proliferation assays. Cellular proliferation was assessed after plating cells at 50 000 cell/well in triplicate in six-well plates and counting cells after 24 and 96 h of incubation in complete media, serum-free media or serum-free prostate stromal fibroblast conditioned media, as described previously (Macoska J A, et al., (2004) Cancer Genet. Cytogenet. 154, 36-43; incorporated herein by reference in its entirety). Averages and standard deviations of cell number were calculated for each time point under each media condition. To assess the effects of exogenous CXCL12 on cellular proliferation, recombinant human SDF1 alpha/CXCL12 (R & D Systems, 350-NS) was added at the desired concentration in 1 mL SF HIE (or 1 mL SF HIE alone for control) to each well. The cells were counted at 24 and 96 h growth and re-fed at 48 and 72 h growth. Cell counts were normalized to 50 000 cells at 24 h to account for any plating discrepancies.
Proliferation Assays. Cellular proliferation was assessed after plating cells at 50,000 cell/well in triplicate in six well plates and counting cells after 24 and 96 hours of incubation as described previously (see, e.g., Macoska J A, et al., 2004 Cancer Genet. Cytogenet. 154, 36-43; incorporated herein by reference in its entirety). To assess the effects of exogenous CXCL12 on cellular proliferation, recombinant human SDF1 alpha/CXCL12 (R&D Systems, 350-NS) was added at the desired concentration in 1 ml SF HIE (or 1 ml SF HIE alone for control) to each well. The cells were re-fed at 48 and 72 hours growth and counted at 24 and 96 hours growth. Cell counts were normalized to 50,000 cells at 24 hours to account for any plating discrepancies. Averages and standard deviations of cell number were calculated for each time point under each media condition. Experiments utilizing U0126 were performed as above, except that cells were treated after plating for 2 hours with either DMSO (vehicle) or 5 uM U0126 before addition of CXCL12. Cells were maintained in media containing DMSO or U0126 for the entirety of the experiment. For the antibody blockade experiments, cells were plated at 10,000 cells per well in triplicate in 24 well dishes and pre-incubated with mouse IgG2aκ (BD Pharmingen 555571) or mouse anti-CXCR4 (BD Pharmingen 555971) at 1 ug/ml for 1 hour prior to CXCL12 addition. Cells were maintained in media containing appropriate antibodies for the entirety of the experiment, and cells were counted at 24 and 96 hours as above.
Proliferation Assays. Cellular proliferation was assessed after plating cells at 50,000 cell/well in triplicate in six well plates and counting cells after 24 and 96 hours of incubation as described previously (see, e.g., Begley L, et al., Genes Chromosomes Cancer. 2006 February; 45(2): 136-46; herein incorporated by reference in its entirety). To assess the effects of exogenous CXCL5 on cellular proliferation, recombinant human CXCL5 (R&D Systems, 254-X) was added at the desired concentration in 2 ml SF media (or 2 ml SF media alone for control) to each well. The cells were re-fed at 24 hours growth and counted at 24 and 96 hours growth. Cell counts were normalized to 50,000 cells at 24 hours to account for any plating discrepancies. Averages and standard deviations of cell number were calculated for each time point under each media condition. For the antibody blockade experiments, 10,000 cells per well were plated in triplicate in 24 well dishes and preincubated with mouse anti-human CXCR2 (Biosource AHR1532X) or mouse antihuman CXCR4 (BD Pharmingen 555971) at 1 ug/ml for 1 hour prior to CXCL5 addition. Cells were maintained in media containing appropriate antibodies for the entirety of the experiment and were counted at 24 and 96 hours as above.

| Compound | effect on CXCL12-stimulated EGR1 gene transcription (EGR1 gene transcript; 5 uM U0126 for 2 hours, then 10 pM CXCL12) | effect on proliferative response to CXCL12 ([1]; co-treatment with U0126 (5 uM), 50 pM CXCL12) | effect of U0126 on the effect of CXCL5 (anticipated) ([1]; stated as anticipated) | EGR1 transcript versus vehicle-treated cells (EGR1 gene transcript; 1-100 pM CXCL5) | proliferation versus SF media alone ([1]; 0.001-1 nM CXCL5, p<0.05) | effect of CXCL5 on proliferation ([1]; CXCL5 1-10 pM) | cell proliferation compared to serum-free (SF HIE) media alone ([1]; add back of exogenous chemokine, 96 hours) |
| --- | --- | --- | --- | --- | --- | --- | --- |
| N#CC(=C(/N)Sc1ccccc1N)/C(C#N)=C(\N)Sc1ccccc1N [U0126] | ablated; also recorded: further dampens | not affected | will inhibit | – | – | – | – |
| CXCL5: recombinant human CXCL5 (R&D Systems, 254-X), CXC-type chemokine | – | – | – | 4- to 8 fold | significantly higher | did not stimulate | stimulate |
